# In ChEMBL document CHEMBL3632469, “Discovery of dihydroquinazolinone derivatives as potent, selective, and CNS-penetrant M(1) and M(4) muscarinic acetylcholine receptors agonists” (Bioorg Med Chem Lett, 2015):
# pIC50: −log10 of the molar value.
# Columns and labels:
# [1] = molecular target: Type-1 angiotensin II receptor (Homo sapiens) (UniProt P30556); test: Agonist activity at angiotensin 2 type 1 receptor (unknown origin) expressed in CHO cells assessed as calcium mobilization at 3 uM; type: functional, cell-based
# Cytochrome P450 2C9 = Cytochrome P450 2C9 (Homo sapiens, UniProt P11712); test: Inhibition of CYP2C9 (unknown origin); type: ADME
# [2] = molecular target: Histamine H1 receptor (Homo sapiens) (UniProt P35367); test: Agonist activity at histamine H1 receptor (unknown origin) expressed in CHO cells assessed as calcium mobilization at 3 uM; type: functional, cell-based
# [3] = molecular target: T1, Muscarinic acetylcholine receptor M4 (Homo sapiens) (UniProt P08173); test: Partial agonist activity at human muscarinic M4 acetylcholine receptor expressed in CHO cells co-expressing Galpha16 assessed as calcium mobilization at 0.3 uM by FLIPR assay; type: functional, cell-based
# T1 sequence (whole entry): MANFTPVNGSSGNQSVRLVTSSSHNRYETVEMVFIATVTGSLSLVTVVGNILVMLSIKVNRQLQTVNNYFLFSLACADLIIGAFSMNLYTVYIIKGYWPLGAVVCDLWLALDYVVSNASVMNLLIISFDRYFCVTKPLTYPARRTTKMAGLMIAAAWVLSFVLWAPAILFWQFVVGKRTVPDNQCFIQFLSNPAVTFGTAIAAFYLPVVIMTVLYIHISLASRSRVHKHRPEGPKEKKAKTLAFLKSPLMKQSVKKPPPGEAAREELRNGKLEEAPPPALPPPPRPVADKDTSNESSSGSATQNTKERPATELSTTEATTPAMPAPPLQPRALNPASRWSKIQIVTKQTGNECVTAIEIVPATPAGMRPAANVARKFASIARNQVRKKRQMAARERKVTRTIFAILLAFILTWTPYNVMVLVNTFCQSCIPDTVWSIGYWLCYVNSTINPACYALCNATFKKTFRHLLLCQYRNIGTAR
# [4] = molecular target: 5-hydroxytryptamine receptor 1F (Homo sapiens) (UniProt P30939); test: Agonist activity at 5-HT1F receptor (unknown origin) expressed in CHO cells assessed as calcium mobilization at 3 uM; type: functional, cell-based
# Rattus norvegicus = test: Antipsychotic-like activity in sc dosed rat assessed as inhibition of METH-induced locomotor hyperactivity; type: functional
# [5] = molecular target: Alpha-1B adrenergic receptor (Homo sapiens) (UniProt P35368); test: Agonist activity at adrenergic a1B receptor (unknown origin) expressed in CHO cells assessed as calcium mobilization at 3 uM; type: functional, cell-based
# [6] = molecular target: D(1A) dopamine receptor (Homo sapiens) (UniProt P21728); test: Agonist activity at dopamine D1 receptor (unknown origin) expressed in CHO cells assessed as calcium mobilization at 3 uM; type: functional, cell-based
# [7] = molecular target: 5-hydroxytryptamine receptor 1E (Homo sapiens) (UniProt P28566); test: Agonist activity at 5-HT1E receptor (unknown origin) expressed in CHO cells assessed as calcium mobilization at 3 uM; type: functional, cell-based
# [8] = molecular target: Delta-type opioid receptor (Homo sapiens) (UniProt P41143); test: Agonist activity at opiate delta1 receptor (unknown origin) expressed in CHO cells assessed as calcium mobilization at 3 uM; type: functional, cell-based
# [9] = molecular target: Alpha-2A adrenergic receptor (Homo sapiens) (UniProt P08913); test: Antagonist activity at adrenergic a2a receptor (unknown origin) expressed in CHO cells assessed as calcium mobilization at 3 uM; type: functional, cell-based
# [10] = Permeability of the compound at pH 7.4 by PAMPA method; type: physicochemical; conditions: read-out: permeability
# [11] = Ratio of drug level in brain to blood in rat; type: ADME, tissue-based
# [12] = molecular target: 5-hydroxytryptamine receptor 7 (Homo sapiens) (UniProt P34969); test: Agonist activity at 5-HT7B receptor (unknown origin) expressed in CHO cells assessed as calcium mobilization at 3 uM; type: functional, cell-based
# [13] = molecular target: Histamine H3 receptor (Homo sapiens) (UniProt Q9Y5N1); test: Agonist activity at histamine H3 receptor (unknown origin) expressed in CHO cells assessed as calcium mobilization at 3 uM; type: functional, cell-based
# [14] = molecular target: Cannabinoid receptor 1 (Homo sapiens) (UniProt P21554); test: Agonist activity at CB1 receptor (unknown origin) expressed in CHO cells assessed as calcium mobilization at 3 uM; type: functional, cell-based
# [15] = molecular target: P2Y purinoceptor 1 (Homo sapiens) (UniProt P47900); test: Agonist activity at P2Y1 receptor (unknown origin) expressed in CHO cells assessed as calcium mobilization at 3 uM; type: functional, cell-based
# [16] = molecular target: Adenosine receptor A1 (Homo sapiens) (UniProt P30542); test: Agonist activity at adenosine a1 receptor (unknown origin) expressed in CHO cells assessed as calcium mobilization at 3 uM; type: functional, cell-based
# [17] = molecular target: 5-hydroxytryptamine receptor 5A (Homo sapiens) (UniProt P47898); test: Antagonist activity at 5-HT5a receptor (unknown origin) expressed in CHO cells assessed as calcium mobilization at 3 uM; type: functional, cell-based
# [18] = molecular target: Cysteinyl leukotriene receptor 2 (Homo sapiens) (UniProt Q9NS75); test: Antagonist activity at CysLT2 receptor (unknown origin) expressed in CHO cells assessed as calcium mobilization at 3 uM; type: functional, cell-based
# [19] = molecular target: Kappa-type opioid receptor (Homo sapiens) (UniProt P41145); test: Antagonist activity at opiate kappa receptor (unknown origin) expressed in CHO cells assessed as calcium mobilization at 3 uM; type: functional, cell-based
# [20] = molecular target: 5-hydroxytryptamine receptor 1A (Homo sapiens) (UniProt P08908); test: Agonist activity at 5-HT1a receptor (unknown origin) expressed in CHO cells assessed as calcium mobilization at 3 uM; type: functional, cell-based
# [21] = molecular target: T2, Muscarinic acetylcholine receptor M2 (Homo sapiens) (UniProt P08172); test: Agonist activity at human muscarinic M2 acetylcholine receptor expressed in CHO cells co-expressing Galpha16 assessed as calcium mobilization at 0.3 uM by FLIPR assay; type: functional, cell-based
# T2 sequence (whole entry): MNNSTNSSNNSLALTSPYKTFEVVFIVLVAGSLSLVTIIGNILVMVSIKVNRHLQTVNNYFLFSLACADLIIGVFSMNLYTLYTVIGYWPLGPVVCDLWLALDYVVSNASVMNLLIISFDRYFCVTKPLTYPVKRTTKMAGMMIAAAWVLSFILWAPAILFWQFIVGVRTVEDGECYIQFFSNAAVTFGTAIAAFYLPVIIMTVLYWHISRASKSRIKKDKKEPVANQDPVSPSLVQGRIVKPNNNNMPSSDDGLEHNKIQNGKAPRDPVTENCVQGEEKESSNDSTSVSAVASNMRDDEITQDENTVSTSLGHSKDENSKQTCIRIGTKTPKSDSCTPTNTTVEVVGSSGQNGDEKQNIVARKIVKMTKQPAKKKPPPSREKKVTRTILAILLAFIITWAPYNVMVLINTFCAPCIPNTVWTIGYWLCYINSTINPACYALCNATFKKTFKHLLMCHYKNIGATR
# [22] = molecular target: Substance-P receptor (Homo sapiens) (UniProt P25103); test: Agonist activity at TaCR1 receptor (unknown origin) expressed in CHO cells assessed as calcium mobilization at 3 uM; type: functional, cell-based
# [23] = molecular target: Adenosine receptor A2a (Homo sapiens) (UniProt P29274); test: Agonist activity at adenosine a2a receptor (unknown origin) expressed in CHO cells assessed as calcium mobilization at 3 uM; type: functional, cell-based
# [24] = molecular target: D(4) dopamine receptor (Homo sapiens) (UniProt P21917); test: Agonist activity at dopamine D4 receptor (unknown origin) expressed in CHO cells assessed as calcium mobilization at 3 uM; type: functional, cell-based
# D(4) dopamine receptor (Homo sapiens), sequence (P21917 whole entry): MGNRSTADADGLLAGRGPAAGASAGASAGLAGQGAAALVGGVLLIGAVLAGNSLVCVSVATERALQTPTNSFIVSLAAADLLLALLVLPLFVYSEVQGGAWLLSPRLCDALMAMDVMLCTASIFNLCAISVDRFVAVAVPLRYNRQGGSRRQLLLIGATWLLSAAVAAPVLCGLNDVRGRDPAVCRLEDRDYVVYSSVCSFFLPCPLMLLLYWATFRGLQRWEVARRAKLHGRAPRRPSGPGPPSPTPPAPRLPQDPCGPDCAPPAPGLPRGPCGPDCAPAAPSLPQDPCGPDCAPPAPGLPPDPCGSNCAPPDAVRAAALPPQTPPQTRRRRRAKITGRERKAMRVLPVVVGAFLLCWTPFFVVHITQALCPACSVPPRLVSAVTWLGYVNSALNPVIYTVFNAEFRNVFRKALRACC
# Delta-type opioid receptor (Homo sapiens), sequence (P41143 whole entry): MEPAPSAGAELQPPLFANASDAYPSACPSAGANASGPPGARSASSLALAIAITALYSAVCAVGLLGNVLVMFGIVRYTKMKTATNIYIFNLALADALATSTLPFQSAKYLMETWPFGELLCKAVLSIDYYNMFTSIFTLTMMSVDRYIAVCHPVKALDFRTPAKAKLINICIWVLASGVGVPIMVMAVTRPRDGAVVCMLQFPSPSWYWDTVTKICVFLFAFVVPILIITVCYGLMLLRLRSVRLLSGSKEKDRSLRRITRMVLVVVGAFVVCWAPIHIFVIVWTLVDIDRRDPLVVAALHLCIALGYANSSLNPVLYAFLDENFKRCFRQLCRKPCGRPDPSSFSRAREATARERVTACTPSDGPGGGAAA
# Alpha-2A adrenergic receptor (Homo sapiens), sequence (P08913 whole entry): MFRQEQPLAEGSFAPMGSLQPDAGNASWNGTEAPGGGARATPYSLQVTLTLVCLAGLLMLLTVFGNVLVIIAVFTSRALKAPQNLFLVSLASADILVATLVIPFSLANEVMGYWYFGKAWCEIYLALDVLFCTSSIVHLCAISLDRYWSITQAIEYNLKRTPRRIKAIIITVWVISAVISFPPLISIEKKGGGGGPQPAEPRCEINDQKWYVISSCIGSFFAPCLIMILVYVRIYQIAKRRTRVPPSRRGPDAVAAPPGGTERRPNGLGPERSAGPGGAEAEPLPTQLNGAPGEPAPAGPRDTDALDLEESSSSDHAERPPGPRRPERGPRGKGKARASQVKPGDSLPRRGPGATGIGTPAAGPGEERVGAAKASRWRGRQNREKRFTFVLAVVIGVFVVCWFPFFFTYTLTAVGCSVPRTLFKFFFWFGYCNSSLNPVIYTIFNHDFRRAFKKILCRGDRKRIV
# Substance-P receptor (Homo sapiens), sequence (P25103 whole entry): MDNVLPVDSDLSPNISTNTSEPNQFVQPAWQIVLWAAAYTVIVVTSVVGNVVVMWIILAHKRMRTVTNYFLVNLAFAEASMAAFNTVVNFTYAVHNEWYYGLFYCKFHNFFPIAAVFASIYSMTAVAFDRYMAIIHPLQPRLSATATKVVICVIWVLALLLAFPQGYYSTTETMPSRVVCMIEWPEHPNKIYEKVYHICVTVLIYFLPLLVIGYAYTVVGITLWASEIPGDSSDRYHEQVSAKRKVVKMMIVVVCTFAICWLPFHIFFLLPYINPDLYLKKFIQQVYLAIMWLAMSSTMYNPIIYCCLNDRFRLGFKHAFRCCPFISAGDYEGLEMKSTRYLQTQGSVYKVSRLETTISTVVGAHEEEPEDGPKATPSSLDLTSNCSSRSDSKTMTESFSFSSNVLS
# Histamine H3 receptor (Homo sapiens), sequence (Q9Y5N1 whole entry): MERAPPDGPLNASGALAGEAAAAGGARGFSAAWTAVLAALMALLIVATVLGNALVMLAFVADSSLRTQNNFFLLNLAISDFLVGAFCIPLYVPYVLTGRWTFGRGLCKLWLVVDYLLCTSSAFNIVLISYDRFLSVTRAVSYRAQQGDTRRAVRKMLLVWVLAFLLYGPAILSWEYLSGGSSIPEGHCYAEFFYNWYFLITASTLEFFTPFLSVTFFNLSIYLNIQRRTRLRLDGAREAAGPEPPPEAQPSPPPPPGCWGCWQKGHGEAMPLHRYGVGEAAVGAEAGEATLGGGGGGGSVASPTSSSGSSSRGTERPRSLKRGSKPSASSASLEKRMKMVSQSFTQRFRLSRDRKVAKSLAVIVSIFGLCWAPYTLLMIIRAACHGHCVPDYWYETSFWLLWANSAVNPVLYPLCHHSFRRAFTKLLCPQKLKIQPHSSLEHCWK
# Cysteinyl leukotriene receptor 2 (Homo sapiens), sequence (Q9NS75 whole entry): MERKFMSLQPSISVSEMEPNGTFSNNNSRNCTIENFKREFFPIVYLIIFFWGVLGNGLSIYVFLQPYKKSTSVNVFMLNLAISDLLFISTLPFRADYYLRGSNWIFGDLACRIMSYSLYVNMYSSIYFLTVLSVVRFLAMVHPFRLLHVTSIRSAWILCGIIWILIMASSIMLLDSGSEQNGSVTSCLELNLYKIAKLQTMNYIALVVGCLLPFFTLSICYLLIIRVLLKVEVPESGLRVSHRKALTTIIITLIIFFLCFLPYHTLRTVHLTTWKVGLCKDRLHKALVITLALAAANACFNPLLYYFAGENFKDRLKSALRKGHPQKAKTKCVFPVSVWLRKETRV
# 5-hydroxytryptamine receptor 1A (Homo sapiens), sequence (P08908 whole entry): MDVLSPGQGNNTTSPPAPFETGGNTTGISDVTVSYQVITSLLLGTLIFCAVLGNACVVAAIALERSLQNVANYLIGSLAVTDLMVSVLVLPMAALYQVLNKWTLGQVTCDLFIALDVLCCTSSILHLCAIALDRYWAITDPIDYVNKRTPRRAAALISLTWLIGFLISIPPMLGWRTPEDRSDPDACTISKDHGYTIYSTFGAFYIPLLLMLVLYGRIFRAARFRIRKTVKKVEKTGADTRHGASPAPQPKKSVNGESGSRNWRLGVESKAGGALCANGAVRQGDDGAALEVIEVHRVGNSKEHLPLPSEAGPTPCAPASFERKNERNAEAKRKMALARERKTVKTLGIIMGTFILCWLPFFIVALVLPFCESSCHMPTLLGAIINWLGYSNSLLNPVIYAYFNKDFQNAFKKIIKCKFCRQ
# D(1A) dopamine receptor (Homo sapiens), sequence (P21728 whole entry): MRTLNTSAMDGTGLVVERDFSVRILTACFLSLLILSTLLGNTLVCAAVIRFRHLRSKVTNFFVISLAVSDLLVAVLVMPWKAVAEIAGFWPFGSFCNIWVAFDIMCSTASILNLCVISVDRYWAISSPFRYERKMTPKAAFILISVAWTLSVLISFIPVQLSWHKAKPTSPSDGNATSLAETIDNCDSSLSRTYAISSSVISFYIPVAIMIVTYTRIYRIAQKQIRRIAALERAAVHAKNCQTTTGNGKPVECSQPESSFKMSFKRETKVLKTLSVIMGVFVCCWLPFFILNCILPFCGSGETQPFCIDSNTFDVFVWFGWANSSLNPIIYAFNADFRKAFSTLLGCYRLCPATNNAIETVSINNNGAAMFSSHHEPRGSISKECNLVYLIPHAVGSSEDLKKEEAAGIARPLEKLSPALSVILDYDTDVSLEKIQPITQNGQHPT
# 5-hydroxytryptamine receptor 5A (Homo sapiens), sequence (P47898 whole entry): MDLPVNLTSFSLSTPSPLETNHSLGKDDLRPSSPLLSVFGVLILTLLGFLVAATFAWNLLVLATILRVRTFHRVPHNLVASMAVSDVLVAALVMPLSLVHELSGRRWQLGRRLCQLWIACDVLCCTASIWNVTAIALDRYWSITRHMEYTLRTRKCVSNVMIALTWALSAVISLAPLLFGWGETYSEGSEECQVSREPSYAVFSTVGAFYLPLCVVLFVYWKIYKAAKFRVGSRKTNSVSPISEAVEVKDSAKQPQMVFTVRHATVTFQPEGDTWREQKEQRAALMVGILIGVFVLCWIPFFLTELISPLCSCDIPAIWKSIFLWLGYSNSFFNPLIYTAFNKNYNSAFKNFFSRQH
# Cannabinoid receptor 1 (Homo sapiens), sequence (P21554 whole entry): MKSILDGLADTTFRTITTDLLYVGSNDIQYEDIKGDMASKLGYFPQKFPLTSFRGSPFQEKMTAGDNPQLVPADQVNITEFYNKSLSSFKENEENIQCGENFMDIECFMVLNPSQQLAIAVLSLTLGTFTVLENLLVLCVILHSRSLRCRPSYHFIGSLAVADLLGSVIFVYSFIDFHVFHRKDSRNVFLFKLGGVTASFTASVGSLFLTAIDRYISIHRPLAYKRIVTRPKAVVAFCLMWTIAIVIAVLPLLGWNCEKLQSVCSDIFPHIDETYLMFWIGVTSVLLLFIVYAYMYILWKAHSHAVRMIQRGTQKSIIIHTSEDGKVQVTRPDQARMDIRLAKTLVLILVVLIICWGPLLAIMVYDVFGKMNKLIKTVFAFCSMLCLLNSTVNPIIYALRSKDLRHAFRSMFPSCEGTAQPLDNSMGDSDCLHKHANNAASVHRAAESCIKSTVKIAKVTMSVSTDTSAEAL
# 5-hydroxytryptamine receptor 1F (Homo sapiens), sequence (P30939 whole entry): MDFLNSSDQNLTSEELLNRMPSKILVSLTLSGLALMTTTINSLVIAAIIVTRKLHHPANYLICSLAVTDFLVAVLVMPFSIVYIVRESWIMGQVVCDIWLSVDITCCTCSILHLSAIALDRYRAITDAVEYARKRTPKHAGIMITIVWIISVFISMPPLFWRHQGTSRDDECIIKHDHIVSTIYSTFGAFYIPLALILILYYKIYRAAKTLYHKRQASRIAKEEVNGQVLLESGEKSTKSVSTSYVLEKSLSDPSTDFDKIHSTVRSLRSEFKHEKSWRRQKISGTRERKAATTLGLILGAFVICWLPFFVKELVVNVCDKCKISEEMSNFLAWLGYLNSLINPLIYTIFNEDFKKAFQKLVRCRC
# 5-hydroxytryptamine receptor 1E (Homo sapiens), sequence (P28566 whole entry): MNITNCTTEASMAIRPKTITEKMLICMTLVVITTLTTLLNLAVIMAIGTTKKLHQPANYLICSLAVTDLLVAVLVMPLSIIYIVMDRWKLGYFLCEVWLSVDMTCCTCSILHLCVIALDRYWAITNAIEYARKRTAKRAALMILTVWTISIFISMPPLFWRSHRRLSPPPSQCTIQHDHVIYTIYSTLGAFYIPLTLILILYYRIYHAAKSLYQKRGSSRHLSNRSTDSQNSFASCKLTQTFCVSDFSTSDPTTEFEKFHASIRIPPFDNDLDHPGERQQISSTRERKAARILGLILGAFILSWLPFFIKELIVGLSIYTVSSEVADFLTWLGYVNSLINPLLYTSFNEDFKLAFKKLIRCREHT
smiles,measurement,setting,value
CCOC(=O)N1[C@@H]2CC[C@H]1C[C@H](CN1CC[C@@H](N3Cc4ccccc4NC3=O)C1)C2,Activity,[1],-0.18%
same,pIC50,Cytochrome P450 2C9,< 5.70
same,Activity,[2],0.17%
same,Activity,[3],49%
same,Activity,[4],-0.53%
same,ED50,Rattus norvegicus,3 mg/kg
same,Activity,[5],0.82%
same,Activity,[6],0.49%
same,Activity,[7],0.11%
same,Activity,[8],-0.04%
same,inhibition,[9],9.18%
same,Papp,[10],53.8 ×10⁻⁶ cm/s
same,Kp,[11],2.42
same,Activity,[12],-1.12%
same,Activity,[13],-0.38%
same,Activity,[14],1.66%
same,Activity,[15],-0.18%
same,Activity,[16],-0.25%
same,inhibition,[17],0.91%
same,inhibition,[18],18.8%
same,inhibition,[19],1.33%
same,Activity,[20],0.06%
same,Activity,[21],1%
same,Activity,[22],-0.13%
same,Activity,[23],0.38%
same,Activity,[24],-0.14%
